Laboratory results from patent US10039282B2, “Six-membered C—N-bonded aryl sulphide and aryl sulphoxide derivatives as pesticides” (BAYER CROPSCIENCE AKTIENGESELLSCHAFT, priority 2013, dated 2018).
Like-named read-outs stand apart in the source and are kept apart here.

Experiments:
Boophilus microplus = Boophilus microplus injection test; type: in vivo; settings: 20 μg/animal, assessed after 7 days
Procedure: 1. Boophilus microplus—Injection Test
Solvent: dimethyl sulphoxide
To produce an appropriate active compound formulation, 10 mg of active compound are mixed with 0.5 ml of solvent and the concentrate is diluted with solvent to the desired concentration.
1 μl of the active compound solution is injected into the abdomen of 5 engorged adult female cattle ticks (Boophilus microplus). The animals are transferred into dishes and kept in a climate-controlled room.
The efficacy is assessed after 7 days by laying of fertile eggs. Eggs which are not visibly fertile are stored in a climate-controlled cabinet until the larvae hatch after about 42 days. An efficacy of 100% means that none of the ticks has laid any fertile eggs; 0% means that all the eggs are fertile.

Tetranychus urticae [1] = assay: Tetranychus urticae spray test, OP-resistant (bean leaf discs); type: in vivo; settings: 500 g/ha, after 6 days
Procedure: 4. Tetranychus urticae—Spray Test, OP-Resistant
(§1) Solvent: 78.0 parts by weight of acetone
(§2) • 1.5 parts by weight of dimethylformamide Emulsifier: alkylaryl polyglycol ether
To produce further test concentrations, the preparation is diluted with emulsifier-containing water.
After 6 days, the efficacy in % is determined. 100% means that all the spider mites have been killed; 0% means that none of the spider mites have been killed.

[2] = log P by reversed-phase HPLC analogously to OECD Guideline 117; type: physicochemical; settings: reversed-phase C18 HPLC column
Procedure: The log P values were determined analogously to OECD Guideline 117 (EC Directive 92/69/EEC) by HPLC (high-performance liquid chromatography) using reversed-phase columns (C 18), by the following methods:
[a] The LC-MS determination in the acidic range is effected at pH 2.7 with 0.1% aqueous formic acid and acetonitrile (contains 0.1% formic acid) as eluents; linear gradient from 10% acetonitrile to 95% acetonitrile. log P^[…] is also referred to as log P(HCOOH). [b] LC-MS determination in the neutral range is effected at pH 7.8 with 0.001 molar aqueous ammonium hydrogencarbonate solution and acetonitrile as eluents; linear gradient from 10% acetonitrile to 95% acetonitrile. log P^[…] is also referred to as log P(neutral).
Calibration is effected with solutions of a homologous series of unbranched alkan-2-ones (having 3 to 16 carbon atoms) with known log P values (log P values determined on the basis of the retention times by linear interpolation between two successive alkanones).

Tetranychus urticae [3] = assay: Comparative Tetranychus urticae spray test, OP-resistant (TETRUR); type: in vivo; settings: 144 h
Procedure: 2. Tetranychus urticae—Spray Test; OP-Resistant ([…])
as §1, §2
(§3) To produce an appropriate active compound formulation, 1 part by weight of active compound is dissolved using the specified parts by weight of solvent and made up with water containing an emulsifier concentration of 1000 ppm until the desired concentration is attained. To produce further test concentrations, the preparation is diluted with emulsifier-containing water.
Discs of bean leaves (Phaseolus vulgaris) infested by all stages of the greenhouse red spider mite (Tetranychus urticae) are sprayed with an active compound formulation of the desired concentration.
After the desired period of time, the effect in % is determined 100% means that all the spider mites have been killed; 0% means that none of the spider mites have been killed.

Meloidogyne incognita = Meloidogyne incognita test (sand, lettuce, gall formation after 14 days); type: in vivo; settings: 20 ppm
Procedure: 2. Meloidogyne Incognita Test
Solvent: 125.0 parts by weight of acetone
To produce an appropriate active compound formulation, 1 part by weight of active compound is mixed with the stated amount of solvent and the concentrate is diluted with water to the desired concentration.
Vessels are filled with sand, active compound solution, an egg/larvae suspension of the southern root-knot nematode (Meloidogyne incognita) and lettuce seeds. The lettuce seeds germinate and the plants develop. The galls develop on the roots.
After 14 days, the nematicidal efficacy in % is determined by the formation of galls. 100% means that no galls were found; 0% means that the number of galls on the treated plants corresponds to the untreated control.

Phaedon cochleariae [4] = assay: Phaedon cochleariae spray test; type: in vivo; settings: 500 g/ha, after 7 days
Procedure: 3. Phaedon cochleariae—Spray Test
Solvent: 78.0 parts by weight of acetone • • 1.5 parts by weight of dimethylformamide Emulsifier: alkylaryl polyglycol ether
as §3
(§4) Discs of Chinese cabbage leaves (Brassica pekinensis) are sprayed with an active compound formulation of the desired concentration and, after drying, populated with larvae of the mustard beetle (Phaedon cochleariae).
After 7 days, the efficacy in % is determined 100% means that all the beetle larvae have been killed; 0% means that no beetle larvae have been killed.

Tetranychus urticae [5] = assay: Tetranychus urticae spray test, OP-resistant (bean plants); type: in vivo; settings: 20 ppm, after 7 days
Procedure: 6. Tetranychus urticae—Spray Test, OP-Resistant
Solvent: 7 parts by weight of dimethylformamide
Emulsifier: alkylaryl polyglycol ether
as §3, with “water. If the addition of ammonium salts or/and penetrants is required, these are each added in a concentration of 1000 ppm to the formulation solution.” for “water.”
Bean plants (Phaseolus vulgaris) heavily infested by all stages of the greenhouse red spider mite (Tetranychus urticae) are treated by spraying with the active compound formulation in the desired concentration.
After 7 days, the efficacy in % is determined. 100% means that all the spider mites have been killed; 0% means that none of the spider mites have been killed.

Phaedon cochleariae [6] = assay: whole plant or invertebrate; type: in vivo; settings: 168 h
Procedure: 1. Phaedon cochleariae—Spray Test (PHAECO)
as §1, §2, §3, §4
After the desired period of time, the effect in % is determined. 100% means that all the beetle larvae have been killed; 0% means that no beetle larvae have been killed.

[7] = acidic range, pH 2.7, 0.1% aqueous formic acid/acetonitrile, read-out: logP (HCOOH)
[8] = neutral range, pH 7.8, 0.001 molar aqueous ammonium hydrogencarbonate/acetonitrile, read-out: logP (neutral)

Compound	efficacy (no fertile eggs laid) (Boophilus microplus)	efficacy (spider mites killed) (Tetranychus urticae [1])	nematicidal efficacy (formation of galls) (Meloidogyne incognita)	also measured
O=c1cc(C(F)(F)F)ncn1-c1cc([S+]([O-])CC(F)(F)F)c(Cl)cc1Cl (racemic) [Example 4]	100%	100%		
Cc1cc(C)c([S+]([O-])CC(F)(F)F)cc1-n1cnc(C(F)(F)F)cc1=O (racemic) [Example 6, 3-[2,4-Dimethyl-5-(2,2,2-trifluoroethylsulphinyl)phenyl]-6-(trifluoromethyl)pyrimidin-4-one]	100%	100%		chromatographic logP [2, 7]: 2.43; chromatographic logP [2, 8]: 2.39; mortality at 20 g/ha (Tetranychus urticae [3]; TETRUR, 20 g/ha, 6 dat, read-out: % mortality): 100%
Cc1ccc(-n2cncc(C)c2=O)cc1[S+]([O-])CC(F)(F)F (racemic) [Example 27]			90%	
Cc1cc(C)c([S+]([O-])CC(F)(F)F)cc1-n1cnc(C(F)(F)C(F)(F)F)cc1=O (racemic) [Example 33]		100%	100%	
O=c1cc(C(F)(F)F)ncn1-c1ccc(Cl)c([S+]([O-])CC(F)(F)F)c1 (racemic) [Example 34]	100%	100%		efficacy (beetle larvae killed) (Phaedon cochleariae [4]): 83%
O=c1cc(C(F)(F)F)ncn1-c1cc([S+]([O-])CC(F)(F)F)c(Br)cc1F (racemic) [Example 41]		100%	90%	
Cc1cc(C)c([S+]([O-])CC(F)(F)F)cc1-n1cnc(C(F)(F)C(F)(F)F)cc1=O (racemic) [Example 45]		100%	100%	
Cc1cc(=O)n(-c2cc([S+]([O-])CC(F)(F)F)c(C)cc2F)cn1 (racemic) [Example 46]		100%		efficacy (beetle larvae killed) (Phaedon cochleariae [4]): 83%
Cc1ccc(-n2cnc(C(F)(F)F)cc2=O)cc1[S+]([O-])CC(F)(F)F (racemic) [Example 50]	100%	100%		
Cc1cc(Cl)c(-n2cnc(C(F)(F)F)cc2=O)cc1[S+]([O-])CC(F)(F)F (racemic) [Example 53]	100%	100%		efficacy (beetle larvae killed) (Phaedon cochleariae [4]): 100%
Cc1cc(F)c(-n2cnc(C(F)F)cc2=O)cc1[S+]([O-])CC(F)(F)F (racemic) [Example 55]		100%		efficacy (beetle larvae killed) (Phaedon cochleariae [4]): 100%
Cc1cc(F)c(-n2cnc(C(F)(F)C(F)(F)F)cc2=O)cc1[S+]([O-])CC(F)(F)F (single isomer, unassigned) [Example 18]		100%		efficacy (beetle larvae killed) (Phaedon cochleariae [4]): 83%
Cc1cc(F)c(-n2cnc(C(F)(F)C(F)(F)F)cc2=O)cc1[S+]([O-])CC(F)(F)F (single isomer, unassigned) [Example 26]	100%	100%	90%	
Cc1cc(C)c([S+]([O-])CC(F)(F)F)cc1-n1cnc(C(F)(F)F)cc1=O (single isomer, unassigned) [Example 49]				efficacy (spider mites killed) (Tetranychus urticae [5]): 100%
Cc1cc(C)c([S+]([O-])CC(F)(F)F)cc1-n1cnc(C(F)(F)F)cc1=O (single isomer, unassigned) [Example 56]				efficacy (spider mites killed) (Tetranychus urticae [5]): 100%
N#Cc1ccc(-n2cnc(C(F)(F)F)cc2=O)cc1[S+]([O-])CC(F)(F)F (centres unmarked) [4-[6-oxo-4-(trifluoromethyl)pyrimidin-1-yl]-2-(2,2,2-trifluoroethylsulphinyl)benzonitrile, reference compound]				mortality at 500 g/ha (Phaedon cochleariae [6]): 0%; mortality at 20 g/ha (Tetranychus urticae [3]): 0%
N#Cc1cc(F)c(-n2cnc(C(F)(F)F)cc2=O)cc1[S+]([O-])CC(F)(F)F (centres unmarked) [5-fluoro-4-[6-oxo-4-(trifluoromethyl)pyrimidin-1-yl]-2-(2,2,2-trifluoroethylsulphinyl)benzonitrile]				mortality at 500 g/ha (Phaedon cochleariae [6]): 50%
Cc1cc(F)c(-n2cnc(C(F)(F)F)cc2=O)cc1SCC(F)(F)F [Example 1, 3-{2-Fluoro-4-methyl-5-[(2,2,2-trifluoroethyl)sulphanyl]phenyl}-6-(trifluoromethyl)pyrimidin-4(3H)-one]		100%		chromatographic logP [2, 7]: 3.42; chromatographic logP [2, 8]: 3.4
Cc1cc(C)c(-n2cnc(C(F)(F)F)cc2=O)cc1SCC(F)(F)F [Example 5, 3-[2,4-Dimethyl-5-(2,2,2-trifluoroethylsulphanyl)phenyl]-6-(trifluoromethyl)pyrimidin-4-one]	100%	100%		chromatographic logP [2, 7]: 3.56; chromatographic logP [2, 8]: 3.5
Cc1cc(F)c(-n2cnc(C(F)(F)C(F)(F)F)cc2=O)cc1SCC(F)(F)F [Example 9]	100%	100%	90%	efficacy (beetle larvae killed) (Phaedon cochleariae [4]): 100%
Cc1ccc(-n2cncc(F)c2=O)cc1SCC(F)(F)F [Example 12]		90%	90%	
Cc1cc(F)c(-n2cnc(C(C)(F)F)cc2=O)cc1SCC(F)(F)F [Example 22]	100%	100%		
Cc1cc(C)c(-n2c(C)nc(C(F)(F)F)cc2=O)cc1SCC(F)(F)F [Example 30]		100%	90%	
Cc1cc(=O)n(-c2cc(SCC(F)(F)F)c(C)cc2F)cn1 [Example 44]		100%		efficacy (beetle larvae killed) (Phaedon cochleariae [4]): 100%
Cc1ccc(-n2cnc(C(F)(F)F)cc2=O)cc1SCC(F)(F)F [Example 47]	100%	100%		
Cc1cc(Cl)c(-n2cnc(C(F)(F)F)cc2=O)cc1SCC(F)(F)F [Example 59]	100%	100%		
